Laboratory results: patent US11597739B2, “Enhancing CD8+ T cells for adoptive T cell therapy by inhibiting PTPN1 (PTP1B) and PTPN2 (TC-PTP)” (The Royal Institution for the Advancement of …, priority 2017, dated 2023)

Test system: mouse CD8 T cells differentiated into Tcm cells
Experiment: Exhaustion and effector markers after CTL re-stimulation (flow cytometry)
Format: cell-based
Details: second stimulation with anti-CD3, anti-CD28 and IL-2 for 5 days
Source text: FIG. 8 illustrates that pharmacological inhibition of PTPN1/2 reduces expression of exhaustion markers and increases effector-molecule expression after CTL re-stimulation. Flow cytometric analysis of CD8 T cells differentiated into Tcm cells after 5 days of a second stimulation with anti-CD3 and anti-CD28 in presence or absence of K884. Histograms show the expression of exhaustion markers PD-1, CTLA-4, KLRG1 and LAG-3, and granzyme B and IFN-γ as markers of effector CTLs. Cells are gated on live/CD8+/CD62L^high.
2 μg/ml of 145-2C11 Hamster anti-Mouse CD3e in 300 μl of PBS are plated in 24 flat bottom well non-TC treated plates. Incubate O/N at 4° C. CD8 T cells from spleens of 8-12 weeks old OT-1 transgenic mice are isolated. 4×10^5 cells/ml are counted and resuspended in complete RPMI (RPMI+10% FBS heat inactivated at 55° C. for 45 min+Pen/Strep+55 μM β-Mercaptoethanol). The following 2× solutions are prepared:
0.5 ml of 2× solution is added to the corresponding wells. Incubate for 4-8 days. Every 2 days add inhibitor to the corresponding concentration. When the cells are confluent, expand to 6 cm tissue culture plates adding 4 ml of complete RPMI+20 U/ml of IL-2 and in b add 10 μM K884.
Calculate the specific cell lysis as follows: Specific cell lysis=((Sample−BF)/(AF−BF))×100 10) Flow Cytometry 1. Cell Activation • a. Wash cells with 1 ml of culture medium; • b. Centrifuge cells for 5 min at 300 g; • c. Resuspend cells in culture medium; • d. Prepare 2× solutions (negative control with only culture medium, Positive condition with 50 ng/mL of PMA and 500 ng/mL of lonomycin); • e. Plate 100 μL of cell suspension in 96 well plates (U-bottom); • f. Add 100 μL of 2× solutions in appropriate wells; • g. Incubate 4 hours at 37 C, 5% CO2. 2. Extracellular Staining • a. Record cell quantity transfers per tube; • b. Wash cells with 1 mL of PBS+2% FBS; • c. Centrifuge cells for 5 min at 300 g; • d. Empty tubes by inversion; • e. Add the antibodies for extracellular staining; • f. Incubate 20 min at 4° C.; • g. Wash cells with 1 mL of PBS+2% FBS; • h. Centrifuge cells for 5 min at 300 g; • i. […]

## CCOC(=O)c1cc2cc(C(F)(F)P(=O)(O)O)c(Br)cc2s1 [Ex. 1, ((6-BROMO-2-(ETHOXYCARBONYL)BENZO[B]THIOPHEN-5-YL)DIFLUOROMETHYL)PHOSPHONATE]
  expression of exhaustion markers PD-1, CTLA-4, KLRG1: displayed less exhaustion markers PD-1, CDTLA4 and KLRG1
  expression of the receptor LAG-3: increased expression of the receptor LAG-3
  levels of Granzyme B and IFN-gamma: higher levels of Granzyme B and IFN-gamma
